{"source": "patent US9029420B2", "about": "“Agomelatine and pharmaceutical compositions thereof” (Tianjin Taipu Pharmaceutical Science & Technology …, priority 2009, dated 2015)", "assay": "pharmacological and pharmacodynamic studies", "conditions": "no method or data given", "data": [{"smiles": "COc1ccc2cccc(CCNC(C)=O)c2c1", "note": "[agomelatine crystal, N-[2-(7-methoxy-1-naphthyl)-ethyl]acetamide]", "values": [{"measurement": "therapeutic effects for central neural system and microcirculation", "value": "good therapeutic effects for central neural system and microcirculation"}]}]}
